Reference: patent US11957684B2, “Treatment of heavy menstrual bleeding associated with uterine fibroids” (Sumitomo Pharma Switzerland GmbH, priority 2016, dated 2024)
Where “and” joins values, the source holds several entries; their conditions need not be identical. Equal values may be shown once. Read-outs that look alike come from different tables or passages of the source.

What was measured:
[1] = FIG. 10
Method: Table printed on a drawing sheet, FIG. 10
The patent's description of the figure: FIG. 10 is a table of urine PK parameters for Cohort 7 in accordance with Example 4.
First reader's note: Urine PK parameters for Cohort 7 (fed vs fasted, 40 mg); each column is a dosing arm and the rows give summary statistics per parameter.

[2] = FIG. 13
Source text: Table printed on a drawing sheet, FIG. 13
The patent's description of the figure: FIG. 13 is a table of urine PK parameters for Cohorts 8 to 10 on Day 14 of the treatment period in accordance with Example 4.
First reader's note: Per the description these are urine PK parameters for Cohorts 8 to 10 on Day 14; each column is one dose group.

[3] = test system: LH, FSH, estradiol (E2), progesterone (P); experiment: Example 5A: serum LH, FSH, E2, P; assay type: in vivo, human
Method: At Visit 3, blood was drawn twice, at 0.5 to 1.5 hours postdose and at 2 to 5 hours postdose, from each evaluable subject. At Visits 4, 5 and 6, blood was drawn once immediately prior to the dose for each day, and again at 0.5 to 1.5 hours postdose and at 2 to 5 hours postdose, from each evaluable subject. Blood was drawn only once for patients who took the study drug for the day before visiting the investigational site. At Visit 7, blood was drawn only once at the visit.

[4] = FIG. 7D
Source text: Table printed on a drawing sheet, FIG. 7D
The patent's description of the figure: FIGS. 7A-F are tables of plasma PK parameters for Cohorts 8 to 10 in accordance with Example 4.

[5] = Single dose (1 to 80 mg) and 14-day multiple dose (10 to 40 mg) PK of the Compound 1 formulation; assay type: in vivo; conditions: for half-life: read-out: mean plasma half-life (T1/2)
Source text: However, in a preferred embodiment, the pharmacokinetics of the Compound 1 formulation are not affected by food intake.
The mean plasma AUC after a single dose was higher after fasted dosing than after postprandial or preprandial dosing. The mean plasma AUC and mean Cmax with multiple dosing were higher with preprandial than with postprandial dosing.

[6] = human, plasma, po, Day 14 of multiple doses of 10 to 40 mg

CONC(=O)Nc1ccc(-c2sc3c(c2CN(C)C)c(=O)n(-c2ccc(OC)nn2)c(=O)n3Cc2c(F)cccc2F)cc1 [Compound 1, N-(4-(1-(2,6-difluorobenzyl)-5-((dimethylamino)methyl)-3-(6-methoxy-3-pyridazinyl)-2,4-dioxo-1,2,3,4-tetrahydrothieno[2,3-d]pyrimidin-6-yl)phenyl)-N′-methoxyurea]
CLr (L/hr) | Mean [1]: 6.1047 L/h and 6.7583 L/h
Fe (%) | Mean [1]: 0.919% and 1.963%
Ae (0-24) (ng) | Median [2]: 141057.00 ng
CLr (L/hr) | Mean [2]: 6.4821 L/h and 6.7992 L/h and 6.8776 L/h
Fe (%) | Mean [2]: 1.335% and 1.930% and 1.955%
median serum E2 ([3]; 10 mg, Week 2): 82.5 pg/mL
median serum FSH ([3]; 10 mg, Week 2): 5.990 mIU/mL
median serum LH ([3]; 10 mg, Week 2): 3.815 mIU/mL
median serum P ([3]; 10 mg, Week 2): 0.315 ng/mL
median serum E2 ([3]; 10 mg, Week 4): 58.0 pg/mL
median serum FSH ([3]; 10 mg, Week 4): 5.225 mIU/mL
median serum LH ([3]; 10 mg, Week 4): 2.565 mIU/mL
median serum P ([3]; 10 mg, Week 4): 0.440 ng/mL
median serum E2 ([3]; 10 mg, Week 8): 52.0 pg/mL
median serum FSH ([3]; 10 mg, Week 8): 6.150 mIU/mL
median serum LH ([3]; 10 mg, Week 8): 3.460 mIU/mL
median serum P ([3]; 10 mg, Week 8): 0.360 ng/mL
median change in serum E2 from baseline ([3]; 10 mg, Week 12): 0.0 pg/mL
median change in serum FSH from baseline ([3]; 10 mg, Week 12): −1.060 mIU/mL
median change in serum LH from baseline ([3]; 10 mg, Week 12): 0.420 mIU/mL
median change in serum P from baseline ([3]; 10 mg, Week 12): 0.080 ng/mL
median serum E2 ([3]; 10 mg, Week 12): 57.0 pg/mL
median serum FSH ([3]; 10 mg, Week 12): 6.200 mIU/mL
median serum LH ([3]; 10 mg, Week 12): 3.550 mIU/mL
median serum P ([3]; 10 mg, Week 12): 0.410 ng/mL
median serum E2 ([3]; 20 mg, Week 2): 25.0 pg/mL
median serum FSH ([3]; 20 mg, Week 2): 5.705 mIU/mL
median serum LH ([3]; 20 mg, Week 2): 2.520 mIU/mL
median serum P ([3]; 20 mg, Week 2): 0.235 ng/mL
median serum E2 ([3]; 20 mg, Week 4): 23.5 pg/mL
median serum FSH ([3]; 20 mg, Week 4): 4.660 mIU/mL
median serum LH ([3]; 20 mg, Week 4): 1.750 mIU/mL
median serum P ([3]; 20 mg, Week 4): 0.270 ng/mL
median serum E2 ([3]; 20 mg, Week 8): 16.0 pg/mL
median serum FSH ([3]; 20 mg, Week 8): 4.840 mIU/mL
median serum LH ([3]; 20 mg, Week 8): 2.260 mIU/mL
median serum P ([3]; 20 mg, Week 8): 0.250 ng/mL
median change in serum E2 from baseline ([3]; 20 mg, Week 12): -18.5 pg/mL
median change in serum FSH from baseline ([3]; 20 mg, Week 12): −0.720 mIU/mL
median change in serum LH from baseline ([3]; 20 mg, Week 12): −0.895 mIU/mL
median change in serum P from baseline ([3]; 20 mg, Week 12): -0.090 ng/mL
median serum E2 ([3]; 20 mg, Week 12): 13.0 pg/mL
median serum FSH ([3]; 20 mg, Week 12): 5.710 mIU/mL
median serum LH ([3]; 20 mg, Week 12): 2.685 mIU/mL
median serum P ([3]; 20 mg, Week 12): 0.250 ng/mL
median serum FSH ([3]; 40 mg, Week 2): 4.280 mIU/mL
median serum LH ([3]; 40 mg, Week 2): 0.720 mIU/mL
median serum P ([3]; 40 mg, Week 2): 0.230 ng/mL
median serum E2 ([3]; 40 mg, Week 4): 0.0 pg/mL
median serum FSH ([3]; 40 mg, Week 4): 3.710 mIU/mL
median serum LH ([3]; 40 mg, Week 4): 0.550 mIU/mL
median serum P ([3]; 40 mg, Week 4): 0.240 ng/mL
median serum E2 ([3]; 40 mg, Week 8): 0.0 pg/mL
median serum FSH ([3]; 40 mg, Week 8): 3.210 mIU/mL
median serum LH ([3]; 40 mg, Week 8): 0.570 mIU/mL
median serum P ([3]; 40 mg, Week 8): 0.220 ng/mL
median change in serum E2 from baseline ([3]; 40 mg, Week 12): -35.0 pg/mL
median change in serum FSH from baseline ([3]; 40 mg, Week 12): −3.180 mIU/mL
median change in serum LH from baseline ([3]; 40 mg, Week 12): −2.760 mIU/mL
median change in serum P from baseline ([3]; 40 mg, Week 12): -0.060 ng/mL
median serum E2 ([3]; 40 mg, Week 12): 0.0 pg/mL
median serum FSH ([3]; 40 mg, Week 12): 2.950 mIU/mL
median serum LH ([3]; 40 mg, Week 12): 0.650 mIU/mL
median serum P ([3]; 40 mg, Week 12): 0.250 ng/mL
Tmax (hr) | Median [4]: 0.980 h and 1.480 h and 1.000 h
half-life ([5]; human, plasma, po, single dose 1 to 80 mg): 7.1 to 19.8 h
Tmax [5, 6]: 1 to 1.5 h
half-life [5, 6]: 19.2 to 24.6 h
day by which steady state was reached ([5]; multiple dosing): ≤ 7 days
